Data set [1] has as its system recRSV-fireSMASh Y1631H. The experiment in a line: microbe, parasite or virus in culture. The note with it: human respiratory syncytial virus; recombinant recRSV-fireSMASh, HEp-2, RSV L Y1631H. Format: cell-based.
Data set [2] deals with HEp-2 cells. The experiment in a line: Cytotoxicity assay (PrestoBlue) in HEp-2 cells. In kind it is cell-based, human. The note with it: for cytotoxicity: FIG. 24; for CC50: HEp-2 cells, 48-hour incubation, max concentration tested. Here is the method:
(§1) To determine the effect of compound on cell metabolism, HEp-2 cells were seeded at 50% confluence in 96-well plates and were incubated with 3-fold serial dilution of compound from 5 or 50 μM as described, including positive and negative controls for normalization. After 48-hour incubation at 37° C., cells were incubated with PrestoBlue (ThermoFisher Scientific) for 1 hour at 37° C. and fluorescence measured with a H1 synergy plate reader (Biotek).
(§2) After 48-hour incubation at 37° C., cells were incubated with PrestoBlue (ThermoFisher Scientific, cat #A-13262) for 1 h at 37° C. and fluorescence measured with a H1 synergy plate reader (BioTek).

A short description of data set [3]: Cytotoxicity assay (PrestoBlue) in HEp-2 cells. In kind it is cell-based, human. To be noted: human; HEp-2 cells, 48-hour incubation; max concentration tested. Here is the method: as §1, §2
Data set [4] concerns recRSV-fireSMASh L1502Q. Description: microbe, parasite or virus in culture. In kind it is cell-based. The note with it: human respiratory syncytial virus; recombinant recRSV-fireSMASh, HEp-2, RSV L L1502Q.
Data set [5] relates to recRSV-fireSMASh. Description: microbe, parasite or virus in culture. Format: cell-based. To be noted: human respiratory syncytial virus, HAE, read-out: “F1” HAE C50 (first).
The test system of data set [6] is 3D-HAE.
The test system of data set [7] is recRSV-mKate harboring L1502Q. Format: cell-based. To be noted: recRSV with LL1502Q relative to L WT.
Data set [8] concerns “M4” HAE. To be noted: “M4” donor primary HAE cells.
The test system of data set [9] is recRSV-mKate. Description: microbe, parasite or virus in culture. Format: cell-based. The note with it: 3D-HAE, progeny virus titers six days after infection, read-out: half-maximal effective concentration (EC50).
For data set [10], the system named is recRSV-fireSMASh. The experiment in a line: microbe, parasite or virus in culture. In kind it is cell-based. To be noted: human respiratory syncytial virus, HAE, read-out: “M4” HAE C50 (first).
For data set [11], the system named is recRSV-A2line19F-[mKate]. Description: In vivo efficacy in RSV-infected mice (lung viral titer). The note with it: for in vivo lung titer reduction in RSV-infected mice: oral gavage twice daily from 10 h post-infection, lungs 4.5 days after infection; for Lung viral load reduction (log10 TCID50/ml) relative to vehicle-treated: 50 mg/kg bid, therapeutic treatment 10 hours after infection, 4.5 days post-infection.
Method: For efficacy studies, mice were randomly divided into groups (n=5) and infected intranasally with 5×10^5 TCID50 (25 μl per nare) of recRSV-A2line19F-[mKate] in PBS while under anesthesia with ketamine/xylazine. Treatment (compound or vehicle) was administrated at 10 h post-infection via oral gavage in a 200 μl suspension of 1% methylcellulose and administrated twice daily. Temperature and food consumption were monitored daily, body weight was determined twice daily. All animals were euthanized at 4.5 days after infection and lungs were harvested. To determine lung viral titers, lungs were weighted and homogenized with a bead beater in 300 μl PBS in 3 bursts of 20 seconds by 5-minute rest on ice after each cycle. Samples were clarified for 5 minutes at 4° C. and 20,000×g, supernatant aliquoted and stored at −80° C. before being titrated by median tissue culture infectious dose (TCID50) normalized per gram of lung tissue and per ml of lysate. RSV viral titers were determined using standard 50% tissue infective dose (TCID50) assay in HEp-2 cells and 96 well plates, with a Spearman and Karber based method using fluorescence for detection.
Mice were divided randomly into groups of 5, and infected intranasally with 500,000 TCID50 (25 μl/nare) of recRSV-mKate in Phosphate-Buffered Saline. Mice were anesthetized with ketamine/xylazine. Treatments were administrated via oral gavage in a 200 μl suspension of 1% Methylcellulose in water. Temperature and body weight were determined on a daily and twice-daily basis, respectively. Efficacy studies were terminated at peak viral replication at 4.5 days post-infection, mice were euthanized and lungs harvested and weighted. Lung viral titers were determined after tissue homogenization with a bead beater with 300 μl PBS (3 bursts of 30 seconds at 4° C., separated by 30-second rest at 4° C.). Homogenates were clarified (5 minutes at 4° C. and 20,000×g), aliquoted and stored at −80° C. until titration. Viral titers were determined by median tissue culture infectious dose (TCID50) titration, adjusted to weight (g) of lung tissue.

Data set [12] has as its system “F1” HAE. The note with it: “F1” donor primary HAE cells.
For data set [13] the following is noted: 100 μM, previous studies; cited from earlier work.
The test system of data set [14] is recRSV-fireSMASh H1632Q. Description: microbe, parasite or virus in culture. Format: cell-based. To be noted: human respiratory syncytial virus; recombinant recRSV-fireSMASh, HEp-2, RSV L H1632Q.
For data set [15], the system named is recRSV-mKate. The experiment in a line: Lung histopathology of RSV-infected mice. To be noted: 50 mg/kg initiated 12 hours after infection.
Method: Mice were divided randomly into groups of 5, and infected intranasally with 500,000 TCID50 (25 μl/nare) of recRSV-mKate in Phosphate-Buffered Saline. Mice were anesthetized with ketamine/xylazine. Treatments were administrated via oral gavage in a 200 μl suspension of 1% Methylcellulose in water. Temperature and body weight were determined on a daily and twice-daily basis, respectively. Efficacy studies were terminated at peak viral replication at 4.5 days post-infection, mice were euthanized and lungs harvested and weighted.
For histopathology, mice were subjected to cervical dislocation 4.5 days after infection and lungs perfused with 10% NBF prior to extraction. Lungs were stored in 10% NBF for 24 hours, followed by incubation in 70% EtOH for two days and embedding into wax blocks, using a 21-hour alcohol-xylene-wax embedding sequence. Blocks were sectioned at ˜4 μm thickness, sections mounted onto microscopy slides, and stained with hematoxylin and eosin (H&E). Slides were examined by a board-certified veterinary pathologist, who was blinded to the treatment groups. Lesions were scored according to the following scale. […]
The target in data set [16] is measles virus polymerase (Measles virus, UniProt P12576). The note with it: found previously (45); cited from earlier work.
Setting [17] is: orally 50 mg/kg b.i.d., starting 12 hours after infection, compared to vehicle-treated.

Where two headings read alike, the source gives them in different places. Bounds are passed on as bounds.

Chain of measles virus polymerase (P03422 whole entry): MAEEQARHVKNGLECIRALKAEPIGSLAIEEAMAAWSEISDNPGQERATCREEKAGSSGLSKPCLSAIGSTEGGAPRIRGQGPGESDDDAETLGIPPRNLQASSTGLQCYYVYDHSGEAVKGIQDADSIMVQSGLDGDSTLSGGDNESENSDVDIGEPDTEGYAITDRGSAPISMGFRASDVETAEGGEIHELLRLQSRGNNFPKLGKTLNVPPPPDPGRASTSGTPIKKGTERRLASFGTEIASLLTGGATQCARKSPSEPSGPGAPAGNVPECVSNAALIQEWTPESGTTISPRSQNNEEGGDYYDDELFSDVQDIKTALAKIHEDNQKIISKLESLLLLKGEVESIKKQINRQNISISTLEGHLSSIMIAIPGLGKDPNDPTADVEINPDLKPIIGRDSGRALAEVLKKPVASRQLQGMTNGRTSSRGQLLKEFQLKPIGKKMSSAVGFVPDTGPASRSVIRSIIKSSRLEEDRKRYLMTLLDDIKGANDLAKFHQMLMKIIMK
Chain of measles virus polymerase (P12576 whole entry): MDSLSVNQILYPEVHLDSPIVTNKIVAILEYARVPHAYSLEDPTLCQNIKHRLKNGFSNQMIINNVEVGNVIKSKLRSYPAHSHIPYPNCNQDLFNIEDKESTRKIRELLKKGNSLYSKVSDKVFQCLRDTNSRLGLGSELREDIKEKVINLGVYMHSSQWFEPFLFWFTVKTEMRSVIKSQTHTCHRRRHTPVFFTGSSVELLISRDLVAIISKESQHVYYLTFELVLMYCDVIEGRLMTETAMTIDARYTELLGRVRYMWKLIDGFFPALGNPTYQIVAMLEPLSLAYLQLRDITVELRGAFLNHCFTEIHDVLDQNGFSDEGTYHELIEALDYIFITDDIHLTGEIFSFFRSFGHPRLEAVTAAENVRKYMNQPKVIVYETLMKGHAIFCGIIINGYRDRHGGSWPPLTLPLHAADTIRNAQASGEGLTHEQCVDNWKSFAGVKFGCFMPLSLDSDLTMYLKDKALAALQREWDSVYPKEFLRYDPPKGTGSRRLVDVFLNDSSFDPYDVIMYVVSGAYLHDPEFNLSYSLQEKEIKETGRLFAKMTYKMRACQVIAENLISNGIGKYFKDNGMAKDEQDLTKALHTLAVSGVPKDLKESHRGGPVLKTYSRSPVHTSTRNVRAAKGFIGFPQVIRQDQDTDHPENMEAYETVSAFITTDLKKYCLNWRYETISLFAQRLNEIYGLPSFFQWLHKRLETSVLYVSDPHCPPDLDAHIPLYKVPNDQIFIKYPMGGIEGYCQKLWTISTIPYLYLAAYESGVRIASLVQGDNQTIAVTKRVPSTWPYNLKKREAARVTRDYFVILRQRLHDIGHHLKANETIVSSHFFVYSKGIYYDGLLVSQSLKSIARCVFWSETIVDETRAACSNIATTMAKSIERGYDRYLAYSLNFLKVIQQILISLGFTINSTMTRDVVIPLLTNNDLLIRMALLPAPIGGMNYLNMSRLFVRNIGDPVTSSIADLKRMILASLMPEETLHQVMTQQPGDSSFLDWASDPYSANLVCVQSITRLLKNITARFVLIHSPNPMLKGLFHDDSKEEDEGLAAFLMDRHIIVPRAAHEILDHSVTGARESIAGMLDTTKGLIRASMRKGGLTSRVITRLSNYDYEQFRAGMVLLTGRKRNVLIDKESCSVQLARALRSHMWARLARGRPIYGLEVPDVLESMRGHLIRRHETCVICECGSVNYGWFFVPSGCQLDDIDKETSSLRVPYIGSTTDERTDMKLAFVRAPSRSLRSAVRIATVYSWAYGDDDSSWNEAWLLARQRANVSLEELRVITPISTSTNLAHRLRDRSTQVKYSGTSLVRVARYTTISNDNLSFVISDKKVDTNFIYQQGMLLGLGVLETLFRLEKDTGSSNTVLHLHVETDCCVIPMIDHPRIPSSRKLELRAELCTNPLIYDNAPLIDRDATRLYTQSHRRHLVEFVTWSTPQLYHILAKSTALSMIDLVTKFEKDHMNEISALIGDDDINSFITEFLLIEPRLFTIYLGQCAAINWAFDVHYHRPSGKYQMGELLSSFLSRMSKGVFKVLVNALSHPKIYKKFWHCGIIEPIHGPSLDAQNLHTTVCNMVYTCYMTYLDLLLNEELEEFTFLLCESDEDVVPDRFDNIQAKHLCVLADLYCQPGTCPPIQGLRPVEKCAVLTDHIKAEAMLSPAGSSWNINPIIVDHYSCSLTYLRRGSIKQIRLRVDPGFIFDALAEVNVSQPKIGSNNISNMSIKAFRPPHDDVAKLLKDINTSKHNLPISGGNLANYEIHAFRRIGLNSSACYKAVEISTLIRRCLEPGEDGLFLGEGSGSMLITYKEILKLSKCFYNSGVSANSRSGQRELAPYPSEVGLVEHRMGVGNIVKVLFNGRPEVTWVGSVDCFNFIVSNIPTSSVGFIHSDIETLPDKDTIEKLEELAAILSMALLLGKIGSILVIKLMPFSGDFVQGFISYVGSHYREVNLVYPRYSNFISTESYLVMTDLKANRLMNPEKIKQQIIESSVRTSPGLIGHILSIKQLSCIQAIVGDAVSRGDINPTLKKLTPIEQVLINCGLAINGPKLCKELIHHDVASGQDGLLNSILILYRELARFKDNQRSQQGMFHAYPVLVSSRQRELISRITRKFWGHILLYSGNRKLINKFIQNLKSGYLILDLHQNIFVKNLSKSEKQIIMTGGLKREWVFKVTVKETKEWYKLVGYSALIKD

For `COc1ccc(Cn2c3cc(=O)n(Cc4cccc(Cl)n4)c(C)c3c(=O)n2-c2ccccn2)cc1` [AVG-233], the EC50 in data set [1] is 2190 nM; in data set [4], greater than 100000 nM; in data set [5] it was 360 nM; in data set [9] (human respiratory syncytial virus, 144 h), 70 nM; in data set [10], 110 nM; in data set [14], 4420 nM. In addition, the cytotoxicity result in data set [2] is recorded as “very low cytotoxicity”; in data set [13], “well-tolerated without any signs of cytotoxicity”. Further, the “HEp-2 C50 (second)” value in data set [2] amounted to 50 µM. Also, in [3], the CC50 at 48 h is greater than 45000 nM. The “effect on tissue organization and tight junction integrity” value in [6] (200 μM, continued multi-day exposure, ZO-1 immunostaining and TEER) was “no negative effect on tissue organization and tight junction integrity”. The “effect on epithelium integrity” value in data set [6] (basolateral 5 μM, RSV-infected, 3 d.p.i.) is listed as “without detectable negative effect”. The “increase in EC90” value in data set [7] was greater than 2000 fold. In addition, the ““M4” HAE C50 (second)” value in [8] came out at 45 µM. The “in vivo lung titer reduction in RSV-infected mice” value (from here on “in vivo lung titer reduction”) in data set [11] (50 mg/kg) is reported as 50 mg/kg: −0.44 log 10. The ““F1” HAE C50 (second)” value in [12] turned out to be 45 µM.
`COc1c(F)c(F)c(Cn2c3cc(=O)n(Cc4cccc(C(F)(F)F)n4)c(C)c3c(=O)n2-c2ncc(F)cc2F)c(F)c1F` [AVG-388]: the EC50 in data set [1] is 2720 nM; in data set [4], greater than 100000 nM; in [5], 130 nM; in [10] it was 150 nM; in [14] it was 4810 nM. In addition, the cytotoxicity result in [2] is on record as “very low cytotoxicity”. Moreover, in data set [2], the “HEp-2 C50 (second)” value was 10 µM. In addition, in data set [3], the CC50 at 48 h was greater than 45000 nM. Moreover, the ““M4” HAE C50 (second)” value in data set [8] turned out to be 10 µM. Moreover, the “in vivo lung titer reduction” value was 50 mg/kg: −1.3 log 10 in [11] (50 mg/kg) and 150 mg/kg: −1.9 log 10 in data set [11] (150 mg/kg). Besides, the “reduction in lung viral load” value in [11] (setting [17]) is 1.3 (±0.25) log 10 TCID50/ml; in data set [11] (orally 150 mg/kg b.i.d.), 1.9 (±0.23) log 10 TCID50/ml. Besides, in [11] (orally 150 mg/kg b.i.d.), the “adverse effects (bodyweight and temperature)” value was “without any signs of adverse effects”. Also, in data set [12], the ““F1” HAE C50 (second)” value is 10 µM. In addition, the “disease progression to viral pneumonia (histopathology)” value in data set [15] is reported as “prevented disease progression to viral pneumonia”. In data set [15], the “vasculitis and perivascular cuffing (histopathology)” value was “Only one animal of the AVG-388 group showed mild vasculitis and perivascular cuffing”.
`COc1c(F)c(F)c(Cn2c3cc(=O)n(Cc4cccc(Cl)n4)c(C)c3c(=O)n2-c2ccccn2)c(F)c1F` [AVG-389]: in data set [2], the “HEp-2 C50 (second)” value is 5 µM. Besides, the EC50 was found to be 160 nM in data set [5] and 70 nM in data set [10]. In addition, the ““M4” HAE C50 (second)” value in data set [8] is 45 µM. Also, in [12], the ““F1” HAE C50 (second)” value was determined as 45 µM.
Take `COc1c(F)c(F)c(Cn2c3cc(=O)n(Cc4cccc(Cl)n4)c(C)c3c(=O)n2-c2ncc(F)cc2F)c(F)c1F` [AVG-390]: in data set [2], the “HEp-2 C50 (second)” value is 45 µM and the CC50 was greater than 45000 nM. In data set [5], the EC50 was determined as 390 nM. In addition, the ““M4” HAE C50 (second)” value in [8] amounted to 45 µM. Besides, the EC50 in data set [10] amounted to 250 nM. Further, the “Lung viral load reduction (log10 TCID50/ml) relative to vehicle-treated” value in data set [11] was −0.5 log10 TCID50/ml. The “in vivo lung titer reduction” value in data set [11] (50 mg/kg) was 50 mg/kg: −0.50 log 10. Besides, in data set [11] (setting [17]), the “reduction in lung viral load” value is on record as “slightly lower antiviral effect”. Besides, the ““F1” HAE C50 (second)” value in data set [12] was found to be 45 µM.
For `COc1ccc(Cn2c3cc(=O)n(Cc4cccc(Cl)n4)c(C)c3c(=O)n2-c2ncc(F)cc2F)cc1` [AVG-391], the “HEp-2 C50 (second)” value in [2] was 45 µM. Moreover, the values for the EC50 in data set [5] and in data set [10] were 350 nM and 300 nM, respectively. The ““M4” HAE C50 (second)” value in data set [8] is 45 µM. The ““F1” HAE C50 (second)” value in [12] worked out at 45 µM.
As to `COc1ccc(Cn2c3cc(=O)n(Cc4cccc(C(F)(F)F)n4)c(C)c3c(=O)n2-c2ncc(F)cc2F)cc1` [AVG-392], the “HEp-2 C50 (second)” value in data set [2] was determined as 45 µM. The EC50 in data set [5] amounted to 920 nM; in data set [10] it was 530 nM. In data set [8], the ““M4” HAE C50 (second)” value turned out to be 45 µM. Besides, the ““F1” HAE C50 (second)” value in data set [12] turned out to be 45 µM.
For the compound `COc1c(F)c(F)c(Cn2c3cc(=O)n(Cc4cccc(C(F)(F)F)n4)c(C)c3c(=O)n2-c2ccccn2)c(F)c1F` [AVG-435], in [2], the “HEp-2 C50 (second)” value was determined as 5 µM and the CC50 is greater than 5000 nM. In addition, the “Lung viral load reduction (log10 TCID50/ml) relative to vehicle-treated” value in [11] was −0.44 log10 TCID50/ml. Further, the “in vivo lung titer reduction” value in [11] (50 mg/kg) is 50 mg/kg: −0.44 log 10. Further, in data set [11] (setting [17]), the “reduction in lung viral load” value was “did not observe as much benefit”.
Take `COc1ccc(Cn2c3cc(=O)n(Cc4cccc(C(F)(F)F)n4)c(C)c3c(=O)n2-c2ccccn2)cc1` [AVG-436]: in [2], the “HEp-2 C50 (second)” value turned out to be 5 µM and the CC50 was greater than 5000 nM. For the same compound, the “Lung viral load reduction (log10 TCID50/ml) relative to vehicle-treated” value in data set [11] is recorded as −0.89 log10 TCID50/ml. The “in vivo lung titer reduction” value in data set [11] (50 mg/kg) was 50 mg/kg: −0.89 log 10. The “reduction in lung viral load” value in [11] (setting [17]) is recorded as 0.89 (±0.14) log 10 TCID50/ml.
As for `Cc1c2c(=O)n(-c3ccccn3)n(Cc3c(Cl)cccc3Cl)c2cc(=O)n1Cc1cccc(C(F)(F)F)n1` [AVG-445], in data set [2], the “HEp-2 C50 (second)” value worked out at 5 µM. The CC50 in data set [2] is greater than 5000 nM. In addition, in data set [11], the “Lung viral load reduction (log10 TCID50/ml) relative to vehicle-treated” value is listed as −1.1 log10 TCID50/ml. Besides, the results for the “in vivo lung titer reduction” value in data set [11] (50 mg/kg) and in [11] (100 mg/kg) were 50 mg/kg: −1.1 log 10 and 100 mg/kg: −1.9 log 10, respectively. Also, the “reduction in lung viral load” value in [11] (setting [17]) is 1.1 (±0.16) log 10 TCID50/ml.
As for `Cc1c2c(=O)n(-c3ccccn3)n(Cc3c(Cl)cccc3Cl)c2cc(=O)n1Cc1cccc(C(F)(F)F)c1` [AVG-446], in [3], the CC50 at 48 h is greater than 5000 nM. In addition, the “in vivo lung titer reduction” value in data set [11] (50 mg/kg) is given as 50 mg/kg: −0.61 log 10; in data set [11] (100 mg/kg), 100 mg/kg: −1.2 log 10.
`Cn1nc(C(F)(F)F)cc1C(=O)Nc1ccc(S(=O)(=O)N2CCCC[C@H]2CCN2CCOCC2)cc1` [ERDRP-0519]: the phosphodiester bond formation result in [16] is reported as “completely blocks all phosphodiesterbond formation”.
As for `O=c1nc(NO)ccn1[C@@H]1O[C@H](CO)[C@@H](O)[C@H]1O` [NHC, reference compound], in data set [9], the EC50 turned out to be 50 nM.

The values are drawn from patent US20240352013A1, “BICYCLIC FUSED PYRAZOLE DERIVATIVES FOR THE TREATMENT OF RESPIRATORY INFECTIONS INCLUDING RSV” (GEORGIA STATE UNIVERSITY RESEARCH FOUNDATION, INC., priority 2021, published 2024).
